This is an account of results in patent US9261497B2, “Method of treating cancer with modulators of SCFSkp2” (New York University, priority 2012, dated 2016).

One test addresses T1, Ubc3 (Homo sapiens, UniProt P49427).
T1 construct: purchased Boston Biochem
T1 sequence (P49427 1-236): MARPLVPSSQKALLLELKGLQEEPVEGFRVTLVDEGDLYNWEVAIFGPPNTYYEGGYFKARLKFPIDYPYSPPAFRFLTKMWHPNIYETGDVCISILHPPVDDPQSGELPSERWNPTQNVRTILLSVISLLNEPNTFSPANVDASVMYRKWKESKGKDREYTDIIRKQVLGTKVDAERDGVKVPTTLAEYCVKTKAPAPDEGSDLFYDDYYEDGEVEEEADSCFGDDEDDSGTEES
Put plainly: E2 ubiquitin charging (Ubc3~Ub conjugates). Conditions: 50 μM inhibitor. The format is biochemical. The protocol:
In vitro reconstituted assays were performed as previously described (Dorrello et al., “S6K1- and betaTRCP-mediated Degradation of PDCD4 Promotes Protein Translation and Cell Growth,” Science 314:467-471 (2006), which is hereby incorporated by reference in their entirety) with the exceptions of the use of (1) unlabeled proteins (wild-type and mutant Skp2 and Cks1, p27, Flag-βTrCP, and HA-PDCD4) generated by in vitro transcription-translation (TNT T7 Coupled Reticulocyte Lysate System, Promega); (2) chain elongation with non-methylated ubiquitin; and (3) immunoblotting to detect poly-ubiquitylation. The following reagents were obtained from Boston Biochem: UBE1, His-UbcH3, His-UbcH5c, Ubiquitin, and Ubiquitin Aldehyde. Additional reagents include CDK2/CyclinE1 (Sigma-Aldrich), S6K (Invitrogen), Okadaic acid (Sigma), and DMSO (Sigma-Aldrich). […] Reactions were stopped in nondenaturing 2× Sample Buffer, with the addition of 10% Beta-mercaptoethanol as indicated, and analyzed by Western blotting.

The next test deals with SCF-βTrCP. Put plainly: β-TrCP PDCD4 in vitro ubiquitylation counter-screen. The format is biochemical. Conditions: 50 μM inhibitor. The protocol: In vitro reconstituted assays were performed as previously described (Dorrello et al., “S6K1- and betaTRCP-mediated Degradation of PDCD4 Promotes Protein Translation and Cell Growth,” Science 314:467-471 (2006), which is hereby incorporated by reference in their entirety) with the exceptions of the use of (1) unlabeled proteins (wild-type and mutant Skp2 and Cks1, p27, Flag-βTrCP, and HA-PDCD4) generated by in vitro transcription-translation (TNT T7 Coupled Reticulocyte Lysate System, Promega); (2) chain elongation with non-methylated ubiquitin; and (3) immunoblotting to detect poly-ubiquitylation. The following reagents were obtained from Boston Biochem: UBE1, His-UbcH3, His-UbcH5c, Ubiquitin, and Ubiquitin Aldehyde. Additional reagents include CDK2/CyclinE1 (Sigma-Aldrich), S6K (Invitrogen), Okadaic acid (Sigma), and DMSO (Sigma-Aldrich). For ubiquitin charging, UBE1 (100 nM) and His-UbcH3 (10 ng/μl) were incubated with ubiquitin (2.5 μg/μl), ATP (2 mM), and 10 μM […] of inhibitors or Vehicle control for 60 min at 30° C. Reactions were stopped in nondenaturing 2× Sample Buffer, with the addition of 10% Beta-mercaptoethanol as indicated, and analyzed by Western blotting.
A general note: The purpose of a counterscreen is to sort out artefacts and off-target activity.

In the next test the target is T2, Skp2-p27 interaction (Homo sapiens, UniProt P61024+Q13309).
T2 construct: made in house; host or cells: cell-free: rabbit reticulocyte lysate (TNT T7 Coupled Reticulocyte Lysate System, Promega) from pcDNA3.1 plasmids
Put plainly: p27 binding to HA-Skp2 (HA-immunoprecipitation). Conditions: for p27 binding to Skp2: 10 μM, HA-Skp2 and Cks1 pretreated before p27-pT187, without ubiquitylation. The protocol: (§1) In vitro ubiquitylation assays were incubated with anti-HA affinity matrix (Roche) in IP buffer (50 mM Tris pH 7.6, 150 mM NaCl, 0.1% NP40, and Roche Complete EDTA-free protease tablet) for 16 h at 4° C. Beads were washed 3× with IP buffer and eluted with 2×SDS Sample Buffer (Boston Bioproducts) and 10% Beta-mercaptoethanol. For binding without ubiquitylation, HA-Skp2 IVT (10 μl) and Cks1 IVT (10 μl) were preincubated with anti-HA affinity matrix in IP buffer for 2 hours, with the addition of p27 kinase reaction (10 μl) for another 16 h incubation at 4° C. All reactions were analyzed after SDS/PAGE by western blotting. Where indicated, Skp2 and Cks1 were pretreated with 10 μM inhibitors for 30 minutes. Kinase reactions were performed with p27 IVT (10 μl) and 0.5 μg/ul CyclinE/CDK2 in kinase buffer (50 mM Tris HCL pH 7.5, 10 mM MgCl2, 2 mM ATP, 2.5 μM Okadaic Acid, and 0.6 mM DTT) at 30° C. for 1 h.

The next test concerns T47D. Put plainly: Cell cycle FACS analysis, T47D. The test is classed as cell-based, human. The method, then:
Whole cell extracts were prepared and immunoblotted as previously described Dorrello et al., “S6K1- and betaTRCP-mediated Degradation of PDCD4 Promotes Protein Translation and Cell Growth,” Science 314:467-471 (2006), which is hereby incorporated by reference in its entirety. For knockdown of Skp2 or p27, shRNAs were induced with 2 ng/ml doxycycline for 48 hours, with the last 16 hours co-treated with 0.1% Vehicle or 10 μM inhibitors as indicated. For cycloheximide chase, cells were pretreated 16 h with 0.1% Vehicle or 10 μM inhibitors, followed by 20 ng/ml cycloheximide (Sigma) and whole cell extracts collected for each time point. 20 ng/ml cycloheximide (Sigma) was added to each plate and whole cell extract was collected for each time point. Scanning densitometry was performed on immunoblots using Image J software. […] 1×10^6 cells were fixed in 70% ethanol for 2 h, treated with 200 μg/ml RNase A (Invitrogen) for 30 minutes, and stained with 20 μg/ml Propidium Iodine (Sigma). All samples were assayed in triplicates. Signal was detected using the Becton Dickson LSRII flow cytometer and cell cycle profiles were analyzed with FloJo.
(A flow cytometer gives signals particle by particle.)

The next test addresses T3, CyclinE/CDK2 (Homo sapiens, UniProt P24941).
T3 construct: purchased Sigma-Aldrich
Put plainly: CyclinE/CDK2 kinase assay (phospho-T187 p27). The conditions noted are these: 50 μM inhibitor. The test is classed as biochemical. The method, then:
as §1

T2 sequence (Q13309 whole entry): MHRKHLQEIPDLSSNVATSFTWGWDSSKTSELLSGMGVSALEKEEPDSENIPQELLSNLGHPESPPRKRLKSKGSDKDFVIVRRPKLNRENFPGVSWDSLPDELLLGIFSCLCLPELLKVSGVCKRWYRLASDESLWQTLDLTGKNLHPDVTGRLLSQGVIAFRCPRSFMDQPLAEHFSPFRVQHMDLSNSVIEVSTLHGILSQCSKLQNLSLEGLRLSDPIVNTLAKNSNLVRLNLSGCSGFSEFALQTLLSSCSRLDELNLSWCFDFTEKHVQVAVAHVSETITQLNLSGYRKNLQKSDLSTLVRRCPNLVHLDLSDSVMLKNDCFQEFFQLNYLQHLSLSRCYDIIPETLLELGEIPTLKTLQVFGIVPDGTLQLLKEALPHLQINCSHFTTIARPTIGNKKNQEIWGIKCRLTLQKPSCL
T2 sequence (P61024 whole entry): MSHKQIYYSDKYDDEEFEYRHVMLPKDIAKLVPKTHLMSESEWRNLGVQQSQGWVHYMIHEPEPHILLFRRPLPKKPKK
T2 sequence (P63208 whole entry partner): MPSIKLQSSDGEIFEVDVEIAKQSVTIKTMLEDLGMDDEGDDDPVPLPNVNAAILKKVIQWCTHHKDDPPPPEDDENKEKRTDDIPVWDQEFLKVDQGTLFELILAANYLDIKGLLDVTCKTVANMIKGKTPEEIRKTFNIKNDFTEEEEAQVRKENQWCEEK
T2 sequence (Q13616 whole entry partner): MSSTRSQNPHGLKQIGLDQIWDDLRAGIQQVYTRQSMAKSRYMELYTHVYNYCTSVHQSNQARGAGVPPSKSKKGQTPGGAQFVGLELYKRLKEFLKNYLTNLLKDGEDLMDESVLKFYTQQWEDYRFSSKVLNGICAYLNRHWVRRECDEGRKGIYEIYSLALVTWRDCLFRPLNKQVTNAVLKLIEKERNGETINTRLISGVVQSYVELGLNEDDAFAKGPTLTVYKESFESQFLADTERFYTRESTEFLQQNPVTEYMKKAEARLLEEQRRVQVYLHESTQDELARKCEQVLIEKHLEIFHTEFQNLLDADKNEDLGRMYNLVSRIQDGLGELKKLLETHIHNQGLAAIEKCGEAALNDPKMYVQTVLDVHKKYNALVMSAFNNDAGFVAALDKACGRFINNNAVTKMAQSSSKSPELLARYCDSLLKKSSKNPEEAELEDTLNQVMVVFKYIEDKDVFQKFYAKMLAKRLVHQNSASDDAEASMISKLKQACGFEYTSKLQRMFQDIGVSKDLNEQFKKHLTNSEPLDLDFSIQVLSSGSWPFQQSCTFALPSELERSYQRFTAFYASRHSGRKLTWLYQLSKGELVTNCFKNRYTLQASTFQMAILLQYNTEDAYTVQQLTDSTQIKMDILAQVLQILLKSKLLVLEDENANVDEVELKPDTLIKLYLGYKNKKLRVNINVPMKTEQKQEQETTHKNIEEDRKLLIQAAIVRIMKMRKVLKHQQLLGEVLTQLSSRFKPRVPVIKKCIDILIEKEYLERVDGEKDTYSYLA
T2 sequence (P62877 whole entry partner): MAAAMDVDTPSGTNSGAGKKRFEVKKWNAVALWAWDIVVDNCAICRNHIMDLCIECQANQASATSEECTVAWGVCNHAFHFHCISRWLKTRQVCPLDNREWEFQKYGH

For `O=C(NN=Cc1cc(Br)cc(Br)c1O)C(=Cc1ccccc1O)NC(=O)c1ccccc1` [Compound C20], the “E2 charging (Ubc3~Ub)” value on Ubc3 is on record as “unaffected”. The “β-TrCP activity (PDCD4 poly-ubiquitylation)” value (“β-TrCP activity” for short) with SCF-βTrCP is on record as “not blocked”. For the same compound, the “p27 binding to Skp2” value at Skp2-p27 interaction is “reduce p27 binding to Skp2”. Moreover, the Cellular phenotype result with T47D is recorded as “no significant cellular phenotype”. Also, the “CyclinE/CDK2 activity (phospho-T187 p27)” value on CyclinE/CDK2 is listed as “not blocked”.
Take `O=C(O)COc1ccc(C=C2SC(=O)N(CC(=O)c3ccc(Cl)cc3)C2=O)cc1` [Compound C16]: at Ubc3, the “E2 charging (Ubc3~Ub)” value is listed as “unaffected”. The “β-TrCP activity” value in the test with SCF-βTrCP is on record as “not blocked”. Also, on Skp2-p27 interaction, the “p27 binding to Skp2” value is on record as “reduce p27 binding to Skp2”. For the same compound, the Cellular phenotype entry in the test on T47D was “no significant cellular phenotype”. Further, the “CyclinE/CDK2 activity (phospho-T187 p27)” value at CyclinE/CDK2 is given as “not blocked”.
For the compound `COC(=O)C1=C(C)N(c2ccc(Br)cc2)C(=O)C1=Cc1ccccc1O` [Compound C2], on Ubc3, the “E2 charging (Ubc3~Ub)” value was “unaffected”. For the same compound, in the test with SCF-βTrCP, the “β-TrCP activity” value was “not blocked”. Moreover, the “p27 binding to Skp2” value on Skp2-p27 interaction was “reduce p27 binding to Skp2”. Also, the Cellular phenotype entry with T47D is listed as “no significant cellular phenotype”. The “CyclinE/CDK2 activity (phospho-T187 p27)” value at CyclinE/CDK2 is given as “not blocked”.
As for `O=C(O)COc1ccc(Br)cc1C=C1SC(=S)N(Cc2cccnc2)C1=O` [Compound C1], on Ubc3, the “E2 charging (Ubc3~Ub)” value is recorded as “unaffected”. The “β-TrCP activity” value in the test on SCF-βTrCP was “not blocked”. Besides, the “p27 binding to Skp2” value at Skp2-p27 interaction is “reduce p27 binding to Skp2”. In addition, the “Amount of p27 interacting with Skp2” value on Skp2-p27 interaction (50 μM, HA-immunoprecipitates of ubiquitylation assays) was “reduced the amount of p27”. Moreover, in the test with T47D (5 μM for 16 hours), the G1 phase entry is “an increase in G1 phase” and the S phase entry is recorded as “a decrease in S phase”. At CyclinE/CDK2, the “CyclinE/CDK2 activity (phospho-T187 p27)” value is on record as “not blocked”.
